Experiment: molar heat capacity at saturation pressure; xn = mol fraction of the nth substance listed

CCCCn1cc[n+](C)c1.Cc1ccc(S(=O)(=O)[O-])cc1 [1-butyl-3-methylimidazolium tosylate] + O
Details	molar heat capacity [J/K/mol]
294.67 K, Crystal, x1 = 0.3	204.91
294.68 K, Crystal, x1 = 0.83	580.85
294.91 K, Crystal, x1 = 0.37	561.1
295.64 K, Crystal, x1 = 0.37	590.88
295.82 K, Liquid, x1 = 0.3	198.57
296.25 K, Crystal, x1 = 0.83	574.07
296.33 K, Crystal, x1 = 0.37	593.15
296.53 K, Metastable crystal, x1 = 0.83	425.47
296.97 K, Liquid, x1 = 0.3	199.1
297.06 K, Crystal, x1 = 0.37	577.63
297.82 K, Crystal, x1 = 0.37	542.42
297.88 K, Crystal, x1 = 0.83	481.52
298.13 K, Liquid, x1 = 0.3	199.52
298.45 K, Metastable crystal, x1 = 0.83	435.64
298.66 K, Crystal, x1 = 0.37	429.59
299.28 K, Liquid, x1 = 0.3	199.84
299.67 K, Crystal, x1 = 0.83	439.03
299.68 K, Crystal, x1 = 0.37	268.68
300.26 K, Metastable crystal, x1 = 0.83	440.59
301.01 K, Liquid, x1 = 0.3	200.58
301.5 K, Crystal, x1 = 0.83	445.81
301.5 K, Liquid, x1 = 0.37	233.85
302.51 K, Metastable crystal, x1 = 0.83	454.93
303.31 K, Crystal, x1 = 0.83	454.15
303.34 K, Liquid, x1 = 0.3	201.21
304 K, Liquid, x1 = 0.37	232.59
305.11 K, Crystal, x1 = 0.83	462.49
305.64 K, Liquid, x1 = 0.3	201.95
306.39 K, Metastable crystal, x1 = 0.83	484.39
306.5 K, Liquid, x1 = 0.37	233.6
306.89 K, Crystal, x1 = 0.83	471.88
307.94 K, Liquid, x1 = 0.3	202.8
308.65 K, Crystal, x1 = 0.83	484.39
309 K, Liquid, x1 = 0.37	234.48
309.82 K, Metastable crystal, x1 = 0.83	516.2
310.24 K, Liquid, x1 = 0.3	203.54
310.39 K, Crystal, x1 = 0.83	497.69
311.5 K, Liquid, x1 = 0.37	235.37
312.09 K, Crystal, x1 = 0.83	512.81
312.54 K, Liquid, x1 = 0.3	204.38
313.06 K, Metastable crystal, x1 = 0.83	550.87
313.75 K, Crystal, x1 = 0.83	529.23
313.99 K, Liquid, x1 = 0.37	236.25
314.83 K, Liquid, x1 = 0.3	205.13
315.4 K, Crystal, x1 = 0.83	549.31
316.18 K, Metastable crystal, x1 = 0.83	596.49
316.49 K, Liquid, x1 = 0.37	237.13
317.02 K, Crystal, x1 = 0.83	571.21
317.13 K, Liquid, x1 = 0.3	205.87
318.6 K, Crystal, x1 = 0.83	596.23
318.98 K, Liquid, x1 = 0.37	238.14
319.16 K, Metastable crystal, x1 = 0.83	653.33
319.42 K, Liquid, x1 = 0.3	206.82
320.13 K, Crystal, x1 = 0.83	624.39
321.47 K, Liquid, x1 = 0.37	239.03
321.62 K, Crystal, x1 = 0.83	655.93
321.7 K, Liquid, x1 = 0.3	207.45
321.99 K, Metastable crystal, x1 = 0.83	719.81
323.06 K, Crystal, x1 = 0.83	690.35
323.96 K, Liquid, x1 = 0.37	239.91
323.99 K, Liquid, x1 = 0.3	208.19
324.46 K, Crystal, x1 = 0.83	727.63
324.62 K, Metastable crystal, x1 = 0.83	811.31
325.81 K, Crystal, x1 = 0.83	774.82
326.27 K, Liquid, x1 = 0.3	209.04
326.44 K, Liquid, x1 = 0.37	240.92
327.04 K, Metastable crystal, x1 = 0.83	934.11
327.1 K, Crystal, x1 = 0.83	828.52
328.33 K, Crystal, x1 = 0.83	892.65
328.55 K, Liquid, x1 = 0.3	209.99
328.93 K, Liquid, x1 = 0.37	241.8
329.23 K, Metastable crystal, x1 = 0.83	1093.4
329.5 K, Crystal, x1 = 0.83	965.13
330.61 K, Crystal, x1 = 0.83	1053
330.82 K, Liquid, x1 = 0.3	210.94
331.17 K, Metastable crystal, x1 = 0.83	1295.7
331.41 K, Liquid, x1 = 0.37	242.69
331.64 K, Crystal, x1 = 0.83	1141.9
332.6 K, Crystal, x1 = 0.83	1224.8
332.82 K, Metastable crystal, x1 = 0.83	1513.7
333.09 K, Liquid, x1 = 0.3	212.21
333.26 K, Crystal, x1 = 0.83	1386.4
333.89 K, Liquid, x1 = 0.37	243.57
334.14 K, Crystal, x1 = 0.83	1617.9
334.32 K, Metastable crystal, x1 = 0.83	1881.5
335.19 K, Crystal, x1 = 0.83	1296.5
335.35 K, Liquid, x1 = 0.3	213.8
336.19 K, Crystal, x1 = 0.83	1133.3
336.37 K, Liquid, x1 = 0.37	244.45
336.41 K, Metastable crystal, x1 = 0.83	678.36
337.35 K, Crystal, x1 = 0.83	711.99
337.61 K, Liquid, x1 = 0.3	215.06
338.19 K, Crystal, x1 = 0.83	480.74
338.85 K, Liquid, x1 = 0.37	245.21
339.63 K, Liquid, x1 = 0.83	464.32
339.88 K, Liquid, x1 = 0.3	213.58
340.02 K, Liquid, x1 = 0.83	459.1
341.32 K, Liquid, x1 = 0.37	246.09
341.87 K, Liquid, x1 = 0.83	460.41
342.14 K, Liquid, x1 = 0.3	213.58
342.82 K, Liquid, x1 = 0.83	461.71
343.71 K, Liquid, x1 = 0.83	461.71
343.8 K, Liquid, x1 = 0.37	246.98
344.41 K, Liquid, x1 = 0.3	214.32
345.56 K, Liquid, x1 = 0.83	462.75
345.93 K, Liquid, x1 = 0.83	463.79
346.27 K, Liquid, x1 = 0.37	247.86
346.67 K, Liquid, x1 = 0.3	214.96
347.4 K, Liquid, x1 = 0.83	464.06
348.75 K, Liquid, x1 = 0.37	248.62
348.93 K, Liquid, x1 = 0.3	215.7
349.04 K, Liquid, x1 = 0.83	465.88
349.25 K, Liquid, x1 = 0.83	465.36
351.1 K, Liquid, x1 = 0.83	466.66
351.19 K, Liquid, x1 = 0.3	216.44
351.22 K, Liquid, x1 = 0.37	249.38
352.16 K, Liquid, x1 = 0.83	467.97
352.94 K, Liquid, x1 = 0.83	467.71
353.44 K, Liquid, x1 = 0.3	217.07
353.69 K, Liquid, x1 = 0.37	250.51
354.79 K, Liquid, x1 = 0.83	469.01
355.28 K, Liquid, x1 = 0.83	469.79
355.69 K, Liquid, x1 = 0.3	217.81
356.16 K, Liquid, x1 = 0.37	251.4
356.63 K, Liquid, x1 = 0.83	470.31
357.94 K, Liquid, x1 = 0.3	218.55
358.39 K, Liquid, x1 = 0.83	471.88
358.47 K, Liquid, x1 = 0.83	471.62
358.63 K, Liquid, x1 = 0.37	252.4
360.18 K, Liquid, x1 = 0.3	219.19
360.31 K, Liquid, x1 = 0.83	472.92
361.09 K, Liquid, x1 = 0.37	253.04
361.5 K, Liquid, x1 = 0.83	473.7
362.15 K, Liquid, x1 = 0.83	474.22
362.42 K, Liquid, x1 = 0.3	219.82
363.55 K, Liquid, x1 = 0.37	253.92
363.99 K, Liquid, x1 = 0.83	475.27
364.61 K, Liquid, x1 = 0.83	475.79
364.66 K, Liquid, x1 = 0.3	220.25
365.82 K, Liquid, x1 = 0.83	476.31
366 K, Liquid, x1 = 0.37	254.68
366.89 K, Liquid, x1 = 0.3	221.09
367.72 K, Liquid, x1 = 0.83	477.87
368.46 K, Liquid, x1 = 0.37	255.69
